In paper PMC13070491, “Single-nucleus transcriptomics, pharmacokinetics, and pharmacodynamics of CDK4/6 and mTOR inhibition in a Phase 0/1 trial of recurrent high-grade glioma” (Neuro-Oncology, 2025):

System: GB126, GB239 and GB86 patient-derived cell lines
Experiment: In vitro single-cell RNA sequencing, analyses across the cell lines (pseudobulk differential gene expression, GSEA, non-cycling cells)
Assay type: cell-based, human
Conditions: pseudobulk, ribociclib versus control (DMSO)
Experimental: Patient-derived glioma stem cell lines (GSCs; GB126, GB86, and GB239) were established from resected GBM tumor tissue. Cell lines were genetically profiled for mutations and copy number aberrations using the IvySeq custom gene panel. […] GB239 was derived from a tumor sample included in this Phase 0 trial (tumor sample: 100-0039). All human GSCs were cultured as described previously.[12]
Following the fifth day of drug exposure, cells were harvested, cryopreserved to be processed at a later point, or immediately processed for single-cell RNA sequencing (10x Genomics, 3’ version 3). The single-cell RNA sequencing data were then processed via cellranger count and Seurat. Briefly, cells were filtered out based on the following criteria: minimum number of genes detected >500 and <10 000 with a maximum percentage of mitochondrial genes set to 10%. Statistical assessment was made between the malignant proportions of each cell state using a 2-sided paired t-test.
Descriptive statistics of the clinical data are included in Table 1. Comparisons between groups were conducted using a 2-sided or paired 2-sided t-test, where indicated. P < .05 was considered significant. Multiple hypothesis test corrections (ie, false discovery rate correction) were applied for snRNAseq pseudobulk differential expression analysis.

Q: CN(C)C(=O)c1cc2cnc(Nc3ccc(N4CCNCC4)cn3)nc2n1C1CCCC1 [ribo] was tested. Which “log2FoldChange CYSLTR2” value (gene CYSLTR2) did it give?
A: 1.514

Q: What about the “log2FoldChange CYYR1-AS1” value (gene CYYR1-AS1) of the same compound?
A: 1.511

Q: And the “log2FoldChange DDO” value (gene DDO)?
A: 1.495

Q: And the log2FoldChange (gene DEPDC1B)?
A: -1.796

Q: What about the log2FoldChange (gene DERL3) of the same compound?
A: -1.095

Q: What about the log2FoldChange (gene DHFR) of the same compound?
A: -1.766

Q: What about the log2FoldChange (gene DIAPH3-AS2) of the same compound?
A: -1.671

Q: What about the log2FoldChange (gene DNA2) of the same compound?
A: -1.693

Q: And the “log2FoldChange DSCR8” value (gene DSCR8)?
A: 1.633

Q: What about the log2FoldChange (gene DTL) of the same compound?
A: -1.106

Q: What about the log2FoldChange (gene ECT2) of the same compound?
A: -1.057

Q: What about the “log2FoldChange FAM71F1” value (gene FAM71F1) of the same compound?
A: 1.476

Q: What about the log2FoldChange (gene FAM72D) of the same compound?
A: -1.625

Q: What about the “log2FoldChange FAM189A2” value (gene FAM189A2) of the same compound?
A: 1.685

Q: And the log2FoldChange (gene FANCG)?
A: -1.109

Q: And the log2FoldChange (gene FBLN1)?
A: -1.678

Q: And the log2FoldChange (gene FEN1)?
A: -1.753

Q: What about the log2FoldChange (gene FGFR3) of the same compound?
A: -1.106

Q: And the “log2FoldChange FSHR” value (gene FSHR)?
A: 1.906

Q: And the “log2FoldChange GBP6” value (gene GBP6)?
A: 1.725

Q: What about the “log2FoldChange GDF3” value (gene GDF3) of the same compound?
A: 1.697

Q: What about the log2FoldChange (gene GINS2) of the same compound?
A: -1.846

Q: What about the log2FoldChange (gene GLI1) of the same compound?
A: -1.086

Q: What about the log2FoldChange (gene GMNN) of the same compound?
A: -1.627

Q: What about the “log2FoldChange HABP2” value (gene HABP2) of the same compound?
A: 1.889

Q: What about the log2FoldChange (gene HAUS8) of the same compound?
A: -1.09

Q: And the “log2FoldChange HEPH” value (gene HEPH)?
A: 1.499

Q: What about the “log2FoldChange HGFAC” value (gene HGFAC) of the same compound?
A: 1.4467

Q: What about the log2FoldChange (gene HIRIP3) of the same compound?
A: -1.608

Q: What about the log2FoldChange (gene HIST1H1C) of the same compound?
A: -1.863

Q: And the log2FoldChange (gene HIST1H3H)?
A: -1.783

Q: And the “log2FoldChange HKDC1” value (gene HKDC1)?
A: 1.5426

Q: What about the log2FoldChange (gene IL1A) of the same compound?
A: -1.056

Q: What about the log2FoldChange (gene IL2RB) of the same compound?
A: -1.0626

Q: What about the log2FoldChange (gene INCENP) of the same compound?
A: -1.833

Q: And the “log2FoldChange ITIH6” value (gene ITIH6)?
A: 1.766

Q: What about the log2FoldChange (gene KCNAB3) of the same compound?
A: -1.628

Q: What about the “log2FoldChange KISS1” value (gene KISS1) of the same compound?
A: 2.005

Q: And the log2FoldChange (gene KNTC1)?
A: -1.6836

Q: What about the “log2FoldChange LINC00239” value (gene LINC00239) of the same compound?
A: 1.81

Q: What about the “log2FoldChange LINC00587” value (gene LINC00587) of the same compound?
A: 1.439

Q: What about the “log2FoldChange LINC00601” value (gene LINC00601) of the same compound?
A: 1.889

Q: What about the “log2FoldChange LINC00645” value (gene LINC00645) of the same compound?
A: 1.665

Q: What about the “log2FoldChange LINC00844” value (gene LINC00844) of the same compound?
A: 1.919

Q: And the “log2FoldChange LINC00892” value (gene LINC00892)?
A: 1.448

Q: And the “log2FoldChange LINC00901” value (gene LINC00901)?
A: 2.0689

Q: What about the “log2FoldChange LINC00903” value (gene LINC00903) of the same compound?
A: 1.858

Q: And the “log2FoldChange LINC00943” value (gene LINC00943)?
A: 1.485

Q: And the “log2FoldChange LINC00992” value (gene LINC00992)?
A: 1.834

Q: And the log2FoldChange (gene LINC01337)?
A: -1.849

Q: What about the “log2FoldChange LINC01496” value (gene LINC01496) of the same compound?
A: 1.714

Q: What about the “log2FoldChange LINC01630” value (gene LINC01630) of the same compound?
A: 1.508

Q: What about the “log2FoldChange LINC01822” value (gene LINC01822) of the same compound?
A: 1.567

Q: And the “log2FoldChange LINC02073” value (gene LINC02073)?
A: 1.471

Q: And the log2FoldChange (gene LINC02137)?
A: -1.093

Q: And the “log2FoldChange LINC02243” value (gene LINC02243)?
A: 1.564

Q: And the “log2FoldChange LINC02320” value (gene LINC02320)?
A: 1.543

Q: What about the “log2FoldChange LINC02349” value (gene LINC02349) of the same compound?
A: 1.483

Q: What about the “log2FoldChange LINC02450” value (gene LINC02450) of the same compound?
A: 1.635

Q: And the “log2FoldChange LINC02552” value (gene LINC02552)?
A: 1.805

Q: And the “log2FoldChange LINC02625” value (gene LINC02625)?
A: 1.633

Q: And the log2FoldChange (gene LINC02757)?
A: -1.715

Q: What about the “log2FoldChange LINC02831” value (gene LINC02831) of the same compound?
A: 1.506

Q: And the “log2FoldChange LNX1-AS1” value (gene LNX1-AS1)?
A: 1.468

Q: What about the log2FoldChange (gene LPL) of the same compound?
A: -1.817

Q: What about the log2FoldChange (gene LRRC26) of the same compound?
A: -1.7868

Q: What about the “log2FoldChange MARVELD3” value (gene MARVELD3) of the same compound?
A: 1.752

Q: What about the “log2FoldChange MCHR1” value (gene MCHR1) of the same compound?
A: 1.5856

Q: And the log2FoldChange (gene MCM8)?
A: -1.112

Q: And the “log2FoldChange MGP” value (gene MGP)?
A: 1.798

Q: What about the log2FoldChange (gene MMS22L) of the same compound?
A: -1.0936

Q: What about the log2FoldChange (gene MND1) of the same compound?
A: -1.879

Q: And the “log2FoldChange MYH7” value (gene MYH7)?
A: 1.782

Q: And the “log2FoldChange NAT2” value (gene NAT2)?
A: 2.867

Q: What about the “log2FoldChange NCAN” value (gene NCAN) of the same compound?
A: 1.62

Q: And the log2FoldChange (gene NCAPD2)?
A: -1.822

Q: And the log2FoldChange (gene NEMP2)?
A: -1.111

Q: What about the log2FoldChange (gene NEUROD4) of the same compound?
A: -1.88

Q: And the “log2FoldChange NHLRC4” value (gene NHLRC4)?
A: 1.795

Q: And the “log2FoldChange NMRK2” value (gene NMRK2)?
A: 1.566

Q: And the log2FoldChange (gene NOSTRIN)?
A: -1.881

Q: And the log2FoldChange (gene NT5M)?
A: -1.088

Q: And the log2FoldChange (gene NUP210)?
A: -1.755

Q: What about the log2FoldChange (gene PALM3) of the same compound?
A: -1.6379

Q: And the log2FoldChange (gene PASK)?
A: -1.1089

Q: What about the “log2FoldChange PCP4L1” value (gene PCP4L1) of the same compound?
A: 2.139

Q: What about the log2FoldChange (gene PHF19) of the same compound?
A: -1.68

Q: What about the “log2FoldChange PLA2G5” value (gene PLA2G5) of the same compound?
A: 2.135

Q: What about the “log2FoldChange PLAAT4” value (gene PLAAT4) of the same compound?
A: 1.529

Q: And the log2FoldChange (gene PMAIP1)?
A: -1.131

Q: What about the log2FoldChange (gene POLQ) of the same compound?
A: -1.824

Q: What about the “log2FoldChange PPP1R1C” value (gene PPP1R1C) of the same compound?
A: 1.557

Q: And the “log2FoldChange PROK2” value (gene PROK2)?
A: 1.695

Q: What about the log2FoldChange (gene PRR11) of the same compound?
A: -1.758

Q: What about the log2FoldChange (gene PSMC3IP) of the same compound?
A: -1.597

Q: What about the “log2FoldChange PTGDS” value (gene PTGDS) of the same compound?
A: 2.458

Q: And the “log2FoldChange RAB7B” value (gene RAB7B)?
A: 1.47

Q: What about the log2FoldChange (gene RACGAP1) of the same compound?
A: -1.841

Q: What about the log2FoldChange (gene RAD51) of the same compound?
A: -1.643

Q: And the log2FoldChange (gene RADIL)?
A: -1.781

Q: What about the log2FoldChange (gene RBBP8) of the same compound?
A: -1.095

Q: And the log2FoldChange (gene RDM1)?
A: -1.73

Q: And the log2FoldChange (gene REXO5)?
A: -1.094

Q: And the log2FoldChange (gene RHBDL3)?
A: -1.639

Q: What about the “log2FoldChange RNASE6” value (gene RNASE6) of the same compound?
A: 1.784

Q: And the log2FoldChange (gene RPA3)?
A: -1.063

Q: And the “log2FoldChange RSPH1” value (gene RSPH1)?
A: 1.529

Q: And the log2FoldChange (gene RTKN2)?
A: -1.715
